Like-named read-outs stand apart in the source and are kept apart here.
How the values were obtained:
AtACO2 [1] = molecular target: T1, AtACO2 (Arabidopsis thaliana, UniProt Q41931); assay: ACO enzymatic activity assay and kinetic analysis (ethylene by GC-FID); assay type: biochemical
[2] = test system: Arabidopsis PSB-D suspension cultured cells; assay: Ethylene production of suspension cultured cells; assay type: cell-based, Arabidopsis thaliana
[3] = test system: ethylene production of Arabidopsis seedlings; assay: Measurement of ethylene production of seedlings (GC-FID); assay type: in vivo, Arabidopsis thaliana; details: for ethylene production in Arabidopsis seedlings: Supplementary Fig. 10
Description: Ethylene production was determined as follows: 30 3-day-old etiolated or 5-day-old green seedlings of Col-0, eto1-2 or other mutants were selected randomly and sealed in a 30 ml vial containing 3 ml liquid MS medium supplemented with indicated treatments. The vial was sealed with a rubber stopper for 24 h at 22 °C prior to ethylene sampling. A 250 μl sample of the headspace gas was withdrawn using a gas-tight syringe from each chamber through the septum stopper, and injected into a gas chromatograph (Agilent 6890NGC, Agilent Technologies, USA) that was equipped with a HP-PLOTQ column (40 m × 530 μm × 40 μm) and a flame ionization detector (FID)[44]. Separations were carried out at 60 °C using N2 as the carrier gas. The area of the ethylene peak was integrated with Agilent Chemstation and results were expressed as the average relative ethylene production (%) of each treatment.

AtACO2 [4] = molecular target: T1, AtACO2; assay: Isothermal titration calorimetry; assay type: binding; details: ITC, 25 °C, read-out: dissociation constant (KD), AtACO2
Description: (§1) ITC experiments were performed using a MicroCal iTC200 (GE Healthcare) at 25 °C. Small molecules and proteins were in the same buffer containing 25 mM Bis–Tris (pH 6.0), 150 mM NaCl, 0.1 mM ZnCl2 (or 0.2 mM FeSO4 for POA and AtACO2). The concentration of small molecules in the syringe was 1 mM, and the concentration of proteins in the cell was 90 μM. Data were analysed with a one-site model using Origin 7.0 (OriginLab).

AtACO4 = AtACO4 (Arabidopsis thaliana, UniProt Q06588); assay: ACO enzymatic activity assay, kinetic analysis; assay type: biochemical; details: varying ACC, 200 μM POA, unit inferred
Description: (§2) The activity was performed following previously published protocol. The reaction mixture contains 50 mM MOPS, pH 7.4, 10% glycerol (v/v), 5 mM ascorbic acid, 20 mM NaHCO3, 0.02 mM FeSO4, 1 mM DTT, and different amounts of ACC and PZA/POA as indicated. The reaction was initiated by the addition of 5 μg ACO protein and immediately sealed with a rubber stopper. After incubation at 30 °C for 30 min with shaking, 100 μl of gas product was withdrawn by syringe from the headspace of the vial and injected into the GC-FID. The area of the ethylene peak was integrated with Agilent Chemstation and results were analysed using the program GraphPad Prism (version 5.01; GraphPad Software Inc., San Diego, CA, USA). The initial velocities were plotted against starting ACC concentrations in a double-reciprocal manner and the kinetic parameters were deduced.

AtACO3 = AtACO3 (Arabidopsis thaliana, UniProt O65378); assay: ACO enzymatic activity assay, kinetic analysis; assay type: biochemical; details: varying ACC, 200 μM POA, unit inferred
Description: as §2

AtACO5 = molecular target: T2, AtACO5 (Arabidopsis thaliana, UniProt Q0WPW4); assay: ACO enzymatic activity assay, kinetic analysis; assay type: biochemical; details: varying ACC, 200 μM POA, unit inferred
T2 sequence (Q0WPW4 1-307): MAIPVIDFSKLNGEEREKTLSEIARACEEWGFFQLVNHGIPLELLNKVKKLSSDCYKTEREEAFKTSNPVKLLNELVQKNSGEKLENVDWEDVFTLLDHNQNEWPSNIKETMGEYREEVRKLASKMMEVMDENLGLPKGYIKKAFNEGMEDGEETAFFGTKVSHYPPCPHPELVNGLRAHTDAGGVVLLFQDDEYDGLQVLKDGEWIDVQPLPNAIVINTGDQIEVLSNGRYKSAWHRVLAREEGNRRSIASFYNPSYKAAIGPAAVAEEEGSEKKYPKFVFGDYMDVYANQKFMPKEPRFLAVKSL
Description: as §2

AtACO1 = molecular target: T3, AtACO1 (Arabidopsis thaliana, UniProt Q9ZUN4); assay: ACO enzymatic activity assay, kinetic analysis; assay type: biochemical; details: varying ACC, 200 μM POA, unit inferred
T3 sequence (Q9ZUN4 1-310): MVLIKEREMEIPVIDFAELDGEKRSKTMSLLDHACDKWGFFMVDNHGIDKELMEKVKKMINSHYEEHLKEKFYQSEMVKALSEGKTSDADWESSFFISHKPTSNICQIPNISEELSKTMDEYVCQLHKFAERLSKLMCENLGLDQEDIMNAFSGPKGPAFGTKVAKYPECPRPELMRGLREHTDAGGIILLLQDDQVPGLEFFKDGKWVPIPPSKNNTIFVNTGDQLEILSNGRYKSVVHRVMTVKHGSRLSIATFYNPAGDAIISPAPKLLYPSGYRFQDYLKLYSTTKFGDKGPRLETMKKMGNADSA
Description: as §2

AtACO2 [5] = molecular target: T1, AtACO2; assay: Fragmentation (stability) of purified AtACO2; details: 200 μM POA, 30 °C
Description: Purified AtACO2 was incubated with or without 200 μM POA at 30 °C in a buffer containing 50 mM MOPS, pH 7.2, 10% glycerol (v/v), 5 mM ascorbic acid, 20 mM NaHCO3, 0.02 mM FeSO4, 1 mM ACC and 1 mM DTT. At the indicated time point, the reaction was terminated by the addition of SDS-PAGE loading buffer followed by boiling. Fragmentation of AtACO2 was visualized on a SDS-PAGE gel.

[6] = test system: dioxygenase for auxin oxidation (DAO); assay: Isothermal titration calorimetry; assay type: binding, Arabidopsis thaliana; details: ITC
Description: as §1

[7] = test system: Arabidopsis etiolated seedlings (Col-0, eto1-2, ctr1-1, ein2-5); assay: Ethylene response phenotype of 3-day-old etiolated seedlings (hypocotyl and root length, root hairs, root cells); assay type: in vivo, Arabidopsis thaliana; details: 3-day-old etiolated eto1-2 seedlings, MS medium with compound (50 μM shown)
[8] = molecular target: the other four ACO proteins in Arabidopsis (AtACO1, AtACO3, AtACO4 and AtACO5); assay: ACO kinetic analysis, span over the other four ACO proteins; assay type: biochemical, Arabidopsis thaliana; details: span over AtACO1, 3, 4, 5
Description: as §2

[9] = molecular target: T4, gibberellin C2 oxidase 2 (GA2OX2) (Arabidopsis thaliana, UniProt Q9XFR9); assay: Isothermal titration calorimetry; assay type: binding; details: ITC
T4 construct: GST; made in house
T4 sequence (Q9XFR9 1-341): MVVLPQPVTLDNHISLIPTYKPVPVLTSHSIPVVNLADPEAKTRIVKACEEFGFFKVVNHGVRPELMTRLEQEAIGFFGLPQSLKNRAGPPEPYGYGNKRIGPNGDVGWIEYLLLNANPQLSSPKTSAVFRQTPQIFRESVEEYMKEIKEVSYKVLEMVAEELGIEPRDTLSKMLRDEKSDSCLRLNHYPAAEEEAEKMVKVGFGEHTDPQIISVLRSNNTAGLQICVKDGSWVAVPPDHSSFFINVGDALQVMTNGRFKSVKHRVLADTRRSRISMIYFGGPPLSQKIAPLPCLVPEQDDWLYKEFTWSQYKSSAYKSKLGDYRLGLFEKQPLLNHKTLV
Description: as §1

[10] = molecular target: T5, anthocyanidin synthase (ANS) (Arabidopsis thaliana, UniProt Q96323); assay: Isothermal titration calorimetry; assay type: binding; details: ITC
T5 construct: GST; made in house
Description: as §1

T1 sequence (Q41931 1-303): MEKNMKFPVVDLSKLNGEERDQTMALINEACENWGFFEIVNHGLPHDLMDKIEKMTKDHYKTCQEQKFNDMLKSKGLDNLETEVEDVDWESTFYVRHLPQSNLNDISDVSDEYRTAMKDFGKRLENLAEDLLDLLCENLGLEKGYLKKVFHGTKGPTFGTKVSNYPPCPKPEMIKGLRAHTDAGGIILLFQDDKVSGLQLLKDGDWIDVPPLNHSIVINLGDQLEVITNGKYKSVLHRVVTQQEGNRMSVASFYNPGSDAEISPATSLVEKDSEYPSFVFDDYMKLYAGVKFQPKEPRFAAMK
T5 sequence (Q96323 whole entry): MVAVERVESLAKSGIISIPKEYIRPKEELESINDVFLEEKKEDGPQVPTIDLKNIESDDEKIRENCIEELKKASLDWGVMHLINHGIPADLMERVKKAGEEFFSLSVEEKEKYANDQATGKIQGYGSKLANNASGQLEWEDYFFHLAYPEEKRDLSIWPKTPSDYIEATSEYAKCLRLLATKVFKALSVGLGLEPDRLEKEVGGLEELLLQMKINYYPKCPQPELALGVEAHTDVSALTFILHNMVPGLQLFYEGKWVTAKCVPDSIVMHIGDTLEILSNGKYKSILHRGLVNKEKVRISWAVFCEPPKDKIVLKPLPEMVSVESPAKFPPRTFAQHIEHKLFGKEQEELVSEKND
AtACO4, sequence (Q06588 whole entry): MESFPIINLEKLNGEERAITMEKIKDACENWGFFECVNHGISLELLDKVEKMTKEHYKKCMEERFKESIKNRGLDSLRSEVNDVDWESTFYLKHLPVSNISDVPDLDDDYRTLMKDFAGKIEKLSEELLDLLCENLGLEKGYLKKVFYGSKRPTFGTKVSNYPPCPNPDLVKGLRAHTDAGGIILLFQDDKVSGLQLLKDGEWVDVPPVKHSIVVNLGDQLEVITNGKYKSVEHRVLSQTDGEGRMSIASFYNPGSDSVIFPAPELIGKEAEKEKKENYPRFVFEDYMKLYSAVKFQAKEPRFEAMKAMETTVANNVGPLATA
AtACO3, sequence (O65378 whole entry): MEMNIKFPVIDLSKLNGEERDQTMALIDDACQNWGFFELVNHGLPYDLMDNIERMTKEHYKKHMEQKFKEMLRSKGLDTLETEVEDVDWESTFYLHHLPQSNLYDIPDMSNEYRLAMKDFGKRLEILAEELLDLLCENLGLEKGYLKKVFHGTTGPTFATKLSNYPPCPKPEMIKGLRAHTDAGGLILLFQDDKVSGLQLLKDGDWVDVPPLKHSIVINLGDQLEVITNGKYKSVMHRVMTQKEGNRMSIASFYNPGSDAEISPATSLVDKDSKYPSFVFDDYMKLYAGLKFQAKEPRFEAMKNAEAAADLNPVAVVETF

## CC(C)(N)C(=O)O [AIB, α-aminoisobutyric acid, reference compound]
AtACO2 [1]; 200 μM
  inhibition effect on AtACO2 compared with POA: much weaker inhibition effect than POA

## O=C(O)c1ccccn1 [2-PA, 2-picolinic acid]
AtACO2 [1]; 200 μM
  inhibition effect on AtACO2 compared with POA: stronger than that of POA
  relative AtACO2 activity treated with POA derivatives: directly inhibited
[2]
  ethylene production in suspension cultured cells: remarkably inhibited
[3]
  ethylene production in Arabidopsis seedlings: remarkably inhibited
AtACO2 [4]; in the presence of Zn2+
  Kd: 2.8 µM

## NC(=O)c1ccccn1 [2-picolinamide]
[2]
  ethylene production in suspension cultured cells: remarkably inhibited
[3]
  ethylene production in Arabidopsis seedlings: remarkably inhibited

## O=C(O)c1cnccn1 [POA, pyrazinecarboxylic acid]
AtACO2 [1]; Lineweaver–Burk plots, varying ACC, 100, 200 or 300 μM POA, error represents s.d., read-out: Ki, AtACO2 inhibition
  Ki: 89.8 ± 18.3 µM
AtACO2 [1]; double-reciprocal plots
  mode of inhibition of ACO: competitive inhibitor
AtACO2 [1]; recombinant AtACO2, ethylene by GC-FID, read-out: IC50, inhibition of AtACO2 activity
  IC50: 72.1 ± 1.11 µM
[3]; 100 μM ACC, 500 μM compound, 24 h
  ACC-induced ethylene production of Col-0 seedlings: inhibited
AtACO4
  Ki: 195 ± 73.3 µM
AtACO3
  Ki: 187 ± 54.5 µM
AtACO5
  Ki: 722 ± 536 µM
AtACO1
  Ki: 317 ± 90.4 µM
AtACO2 [5]
  stability of purified AtACO2 protein: did not obviously change
[6]
  interaction with DAO: no interaction
[7]
  short-root and short-hypocotyl phenotype of eto1-2: specifically suppressed
[8]
  Ki: 187 to 722 µM
[9]
  interaction with GA2OX2: no interaction
AtACO2 [4]; in the presence of Fe2+
  Kd: 14.8 µM
AtACO2 [4]; in the presence of Zn2+
  Kd: 10.2 µM
[10]
  interaction with ANS: no interaction
